Test results taken from patent US20260167673A1, “NOVEL POLYPEPTIDE, POLYPEPTIDE DERIVATIVE AND USE THEREOF” (NANJING ANJI BIOTECHNOLOGY CO., LTD., priority 2023, published 2026).
Like-named read-outs stand apart in the source and are kept apart here. Marks after values point to notes of the source that are not given here. Where no end group is shown, it is not given here.

Key:
Format in all cases: cell-based
[1] = system: human peripheral blood B lymphocytes RPMI 8226 in multiple myeloma; assay: CCK8 proliferation inhibition, RPMI 8226; conditions: RPMI 8226, 50 μM, 48 h
Procedure: (§1) Incubation was continued for 4 h in a cell incubator, an absorbance was measured at 450 nm, and a proliferation inhibition was calculated. Data was presented as mean±SD, and GraphPad Prism 5.0 statistical software was used. A t-test was used for comparison between two groups, while One-way Anova (Dunnett) was used for comparison among a plurality of groups.

[2] = system: human small intestine cancer cells HIC; assay: CCK8 proliferation inhibition, HIC; conditions: 50 μM, 48 h
Procedure: as §1

[3] = system: human brain astrocytoma cells U87MG; assay: CCK8 proliferation inhibition, U87MG; conditions: 50 μM, 48 h
Procedure: as §1

[4] = system: human lung squamous cell carcinoma cells SK-MES-1; assay: CCK8 proliferation inhibition, SK-MES-1; conditions: SK-MES-1, 50 μM, 48 h
Procedure: as §1

[5] = system: human malignant melanoma cells SK-mel-2; assay: CCK8 proliferation inhibition, SK-mel-2; conditions: SK-mel-2, 50 μM, 48 h
Procedure: as §1

[6] = system: human ovarian clear cell carcinoma cells ES-2; assay: CCK8 proliferation inhibition, ES-2; conditions: ES-2, 50 μM, 48 h
Procedure: as §1

[7] = system: human tongue squamous cell carcinoma CAL27 cells; conditions: CAL27, 80 μM, 48 h
Procedure: After incubation was continued for 48 h, add 100 μL of CCK8 solution to each well of the 96-well plate.

[8] = system: human multiple myeloma cells LP-1; assay: CCK8 proliferation inhibition, LP-1; conditions: LP-1, 50 μM, 48 h
Procedure: as §1

[9] = system: human fibrosarcoma cells HT-1080; assay: CCK8 proliferation inhibition, HT-1080; conditions: HT-1080, 50 μM, 48 h
Procedure: as §1

[10] = system: human endometrial cancer cells RL-952; assay: CCK8 proliferation inhibition, RL-952; conditions: RL-952, 50 μM, 48 h
Procedure: as §1

[11] = system: human lung cancer A549 cells; assay: Transwell metastasis inhibition, A549; conditions: 48 h
Procedure: Melanoma, cervical cancer, ovarian cancer, liver cancer, and lung cancer cells were seeded into transwell chambers, with 100 μL per well. Different doses of the HMMW micropeptide and the novel polypeptide HMMW15-51 were added to each chamber as a treatment group, while no drug was added to a blank group. Then, 0.6 mL of a complete culture medium containing 10% FBS was added to the lower chambers of the transwell to stimulate cell metastasis, and the cells were cultured at 5% CO2 and 37° C. for 48 h. The culture solution was discarded from the wells. The cells were fixed with methanol at room temperature for 30 min, stained with 0.1% crystal violet at room temperature for 10 min, and rinsed with clean water. The upper layer nonmetastatic cells were wiped off with a cotton swab. The cells were observed under a microscope, and four fields of view were selected to take photos and count the cells. A metastasis inhibition (MI) was calculated according to a formula: […]
where Ntest represents the number of cell metastases in the treatment group, and Ncontrol represents the number of cell metastases in the blank control group.
Data was presented as mean±SD, and GraphPad Prism 5.0 statistical software was used.

[12] = system: human oral epidermoid carcinoma cells KB; assay: CCK8 proliferation inhibition, KB; conditions: 50 μM, 48 h
Procedure: as §1

[13] = system: human ileocecal cancer cells HCT-8; assay: CCK8 proliferation inhibition, HCT-8; conditions: HCT-8, 50 μM, 48 h
Procedure: as §1

[14] = system: human pancreatic cancer cells ASPC-1; assay: CCK8 proliferation inhibition, ASPC-1; conditions: ASPC-1, 50 μM, 48 h
Procedure: as §1

[15] = system: human kidney cancer cells Ketr-3; assay: CCK8 proliferation inhibition, Ketr-3; conditions: Ketr-3, 50 μM, 48 h
Procedure: as §1

[16] = system: human colon cancer cells HT29; assay: CCK8 proliferation inhibition, HT29; conditions: HT29, 50 μM, 48 h
Procedure: as §1

[17] = system: human colon cancer cells SW480; assay: CCK8 proliferation inhibition, SW480; conditions: SW480, 50 μM, 48 h
Procedure: as §1

[18] = system: human T lymphoblastic leukemia cells Jurkat, Clone E6-1; assay: CCK8 proliferation inhibition, Jurkat, Clone E6-1; conditions: Clone E6-1, 50 μM, 48 h
Procedure: as §1

[19] = system: human non-small cell lung cancer cells A549; assay: CCK8 proliferation inhibition, A549; conditions: A549, 50 μM, 48 h
Procedure: as §1

[20] = system: human malignant melanoma cells A375; assay: CCK8 proliferation inhibition, A375; conditions: A375, 50 μM, 48 h
Procedure: as §1

[21] = system: human bladder cancer cells EJ; assay: CCK8 proliferation inhibition, EJ; conditions: 50 μM, 48 h
Procedure: as §1

[22] = system: human uterine epidermal cancer cells MS751; assay: CCK8 proliferation inhibition, MS751; conditions: MS751, 50 μM, 48 h
Procedure: as §1

[23] = system: human neuroblastoma cells SH-SY5Y; assay: CCK8 proliferation inhibition, SH-SY5Y; conditions: 50 μM, 48 h
Procedure: as §1

[24] = system: human gastric cancer cells BGC-823; assay: CCK8 proliferation inhibition, BGC-823; conditions: BGC-823, 50 μM, 48 h
Procedure: as §1

[25] = system: human pancreatic cancer cells PANC-1; assay: CCK8 proliferation inhibition, PANC-1; conditions: PANC-1, 50 μM, 48 h
Procedure: as §1

Sequence: MERAGVPGFSPRRSSVEAKMQSTSCSVRKSSTVTAWPAVVLLLSWGQRRGG [HMMW]
- Inhibition (%) [1]: 52.930 ± 4.562 %
- OD [1]: 0.578 ± 0.056
- Inhibition (%) [2]: 50.213 ± 2.165 %
- OD [2]: 0.507 ± 0.022
- Inhibition (%) [3]: 62.176 ± 2.001 %
- OD [3]: 0.365 ± 0.019
- Inhibition (%) [4]: 54.910 ± 4.426 %
- OD [4]: 0.435 ± 0.043
- Inhibition (%) [5]: 46.311 ± 4.884 %
- OD [5]: 0.466 ± 0.042
- Inhibition (%) [6]: 51.916 ± 0.690 %
- OD [6]: 0.464 ± 0.007
- OD ([7]; Table 1, deletion mutants): 0.260 ± 0.098
- OD ([7]; Table 2, truncated fragments): 0.351 ± 0.078
- Inhibition (%) [8]: 47.561 ± 4.259 %
- OD [8]: 0.462 ± 0.038
- Inhibition (%) [9]: 53.092 ± 4.138 %
- OD [9]: 0.432 ± 0.038
- Inhibition (%) [10]: 50.988 ± 3.897 %
- OD [10]: 0.422 ± 0.034
- Number of cell metastases ([11]; A549, 50 μmol/L): 33 ± 20.50
- Inhibition (%) ([11]; A549 metastasis, 50 μmol/L): 94.57*** %
- Inhibition (%) [12]: 53.399 ± 3.971 %
- OD [12]: 0.471 ± 0.040
- Inhibition (%) [13]: 48.687 ± 3.785 %
- OD [13]: 0.482 ± 0.036
- Inhibition (%) [14]: 51.448 ± 4.377 %
- OD [14]: 0.497 ± 0.045
- Inhibition (%) [15]: 48.708 ± 4.852 %
- OD [15]: 0.476 ± 0.045
- Inhibition (%) [16]: 50.805 ± 2.422 %
- OD [16]: 0.479 ± 0.024
- Inhibition (%) [17]: 49.114 ± 2.626 %
- OD [17]: 0.479 ± 0.025
- Inhibition (%) [18]: 44.307 ± 3.404 %
- OD [18]: 0.602 ± 0.037
- Inhibition (%) [19]: 52.950 ± 2.023 %
- OD [19]: 0.508 ± 0.022
- Inhibition (%) [20]: 49.572 ± 4.128 %
- OD [20]: 0.491 ± 0.040
- Inhibition (%) [21]: 47.820 ± 1.486 %
- OD [21]: 0.638 ± 0.018
- Inhibition (%) [22]: 49.268 ± 2.531 %
- OD [22]: 0.474 ± 0.024
- Inhibition (%) [23]: 50.542 ± 4.982 %
- OD [23]: 0.486 ± 0.049
- Inhibition (%) [24]: 47.730 ± 4.739 %
- OD [24]: 0.510 ± 0.046
- Inhibition (%) [25]: 50.273 ± 6.135 %
- OD [25]: 0.424 ± 0.052
